# pIC50: −log10 of the molar value. Calls of active or inactive are those of the source. The calls are words filed in the database; no cut-off is given here.
# Biological target: Substance-P receptor (Cavia porcellus) (UniProt P30547)
# Assay: Tested for percent inhibition against [3H]SP (substance P) binding against NK1 receptor relative to compound 5 (100)
# Conditions: concentration not given here
# Chain of Substance-P receptor (Cavia porcellus) (P30547 whole entry): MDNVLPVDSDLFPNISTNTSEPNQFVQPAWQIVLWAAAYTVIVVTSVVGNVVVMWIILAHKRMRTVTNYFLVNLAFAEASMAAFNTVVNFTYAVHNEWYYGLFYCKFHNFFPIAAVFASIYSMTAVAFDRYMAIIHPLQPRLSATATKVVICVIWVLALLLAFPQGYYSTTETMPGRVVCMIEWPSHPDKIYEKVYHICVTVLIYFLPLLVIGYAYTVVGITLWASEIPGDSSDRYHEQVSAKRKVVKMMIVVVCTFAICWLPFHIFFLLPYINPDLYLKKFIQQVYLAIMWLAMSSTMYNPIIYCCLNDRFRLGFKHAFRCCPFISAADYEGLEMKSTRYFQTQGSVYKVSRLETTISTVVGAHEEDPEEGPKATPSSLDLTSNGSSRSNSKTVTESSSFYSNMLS
row,inhibition,SMILES
1,96%,CN(Cc1ccccc1)C(=O)[C@@H](Cc1ccccc1)NC(=O)C(CC(=O)NC(CCC(N)=O)C(=O)NC(C)(C)C)NC(=O)c1c[nH]c2ccccc12 (stereo partly drawn)
2,100%,CN(Cc1ccccc1)C(=O)[C@@H](Cc1ccccc1)NC(=O)C(CC(=O)NC(CO)C(N)=O)NC(=O)c1c[nH]c2ccccc12 (stereo partly drawn)
3,128%,CN(Cc1ccccc1)C(=O)[C@@H](Cc1ccccc1)NC(=O)C(CC(=O)NCC(N)=O)NC(=O)c1c[nH]c2ccccc12 (stereo partly drawn)
4,56%,CN(Cc1ccccc1)C(=O)[C@@H](Cc1ccccc1)NC(=O)C(CC(=O)NC(CCC(N)=O)C(N)=O)NC(=O)c1c[nH]c2ccccc12 (stereo partly drawn)

# Biological target: Substance-P receptor (Cavia porcellus) (UniProt P30547)
# Assay: Tested for percent inhibition against [3H]-SP (substance P) binding against NK1 receptor relative to compound 5 at 100 ng/mL; No inhibition
# Conditions: not given
row,inhibition,SMILES
1,inactive,CC(O)C(NC(=O)CC(NC(=O)OC(C)(C)C)C(=O)N[C@H](Cc1ccccc1)C(=O)N(C)Cc1ccccc1)C(N)=O (stereo partly drawn)
2,inactive,CC(O)C(NC(=O)CC(N)C(=O)N[C@H](Cc1ccccc1)C(=O)N(C)Cc1ccccc1)C(N)=O (stereo partly drawn)

# Biological target: Substance-P receptor (Cavia porcellus) (UniProt P30547)
# Assay: Tested for percent inhibition against [3H]SP (substance P) binding against NK1 receptor relative to compound
# Conditions: concentration not given here
row,inhibition,SMILES
1,100%,C[C@@H](O)C(NC(=O)CC(NC(=O)c1c[nH]c2ccccc12)C(=O)N[C@H](Cc1ccccc1)C(=O)N(C)Cc1ccccc1)C(N)=O (stereo partly drawn)

# Biological target: Substance-P receptor (Cavia porcellus) (UniProt P30547)
# Assay: Tested for percent inhibition against [3H]-SP (substance P) binding against NK1 receptor
# Conditions: concentration not given here
row,inhibition,SMILES
1,100%,CC(=O)N[C@H](C(=O)NCCCC[C@H](NC(=O)c1c[nH]c2ccccc12)C(=O)N[C@H](Cc1ccccc1)C(=O)N(C)Cc1ccccc1)[C@@H](C)O

# Biological target: Substance-P receptor (Cavia porcellus) (UniProt P30547)
# Assay: Percent inhibition of [3H]-SP (substance P) binding to NK1 receptor relative to compound 7 (100)
# Set-up: concentration or dose not given beside the values
# Conditions: concentration not given here
row,SMILES,inhibition
1,CC(O)C(NC(=O)OC(C)(C)C)C(=O)NCCCCC(NC(=O)c1c[nH]c2ccccc12)C(=O)N[C@H](Cc1ccccc1)C(=O)N(C)Cc1ccccc1 (stereo partly drawn),98%
2,CN(Cc1ccccc1)C(=O)[C@@H](Cc1ccccc1)NC(=O)C(CCCCNC(=O)OCc1ccccc1)NC(=O)c1cc2ccccc2[nH]1 (stereo partly drawn),22%
3,CN(Cc1ccccc1)C(=O)[C@@H](Cc1ccccc1)NC(=O)C(CCCCNC(=O)N1CCOCC1)NC(=O)c1c[nH]c2ccccc12 (stereo partly drawn),53%

# Further lines, results first:
row,inhibition,SMILES
1,82%,CC(=O)NCCC(=O)NCCCCC(NC(=O)c1c[nH]c2ccccc12)C(=O)N[C@H](Cc1ccccc1)C(=O)N(C)Cc1ccccc1 (stereo partly drawn)
2,44%,CN(Cc1ccccc1)C(=O)[C@@H](Cc1ccccc1)NC(=O)C(CCCCNC(=O)C(C)(C)C)NC(=O)c1c[nH]c2ccccc12 (stereo partly drawn)
3,144%,CN(C)C(=O)NCCCCC(NC(=O)c1c[nH]c2ccccc12)C(=O)N[C@H](Cc1ccccc1)C(=O)N(C)Cc1ccccc1 (stereo partly drawn)
4,98%,CC(=O)NCC(=O)NCCCCC(NC(=O)c1c[nH]c2ccccc12)C(=O)N[C@H](Cc1ccccc1)C(=O)N(C)Cc1ccccc1 (stereo partly drawn)
5,136%,CC(=O)NC(CO)C(=O)NCCCCC(NC(=O)c1c[nH]c2ccccc12)C(=O)N[C@H](Cc1ccccc1)C(=O)N(C)Cc1ccccc1 (stereo partly drawn)
6,91%,CN(Cc1ccccc1)C(=O)[C@@H](Cc1ccccc1)NC(=O)C(CCCCN)NC(=O)c1c[nH]c2ccccc12 (stereo partly drawn)
7,87%,CC(=O)NCCCCC(NC(=O)c1c[nH]c2ccccc12)C(=O)N[C@H](Cc1ccccc1)C(=O)N(C)Cc1ccccc1 (stereo partly drawn)

# Biological target: Substance-P receptor (Cavia porcellus) (UniProt P30547)
# Assay: Tested for percent inhibition against [3H]SP (substance P) binding against NK1 receptor relative to compound 7 at 100 ng/mL; No inhibition
# Conditions: not given
row,inhibition,SMILES
1,inactive,CC(=O)NC(CCCCNC(=O)C(NC(C)=O)C(C)O)C(=O)N[C@H](Cc1ccccc1)C(=O)N(C)Cc1ccccc1 (stereo partly drawn)
2,inactive,CC(=O)NC(C(=O)NCCCCC(N)C(=O)N[C@H](Cc1ccccc1)C(=O)N(C)Cc1ccccc1)C(C)O (stereo partly drawn)
3,inactive,CC(=O)NC(C(=O)NCCCCC(NC(=O)c1ccccc1)C(=O)N[C@H](Cc1ccccc1)C(=O)N(C)Cc1ccccc1)C(C)O (stereo partly drawn)
4,inactive,CC(=O)N[C@H](C(=O)NCCCC[C@@H](NC(=O)c1c[nH]c2ccccc12)C(=O)N[C@H](Cc1ccccc1)C(=O)N(C)Cc1ccccc1)[C@@H](C)O
5,inactive,CC(=O)NC(C(=O)NCCCCC(NC(=O)OC(C)(C)C)C(=O)N[C@H](Cc1ccccc1)C(=O)N(C)Cc1ccccc1)C(C)O (stereo partly drawn)

# Biological target: Substance-P receptor (Cavia porcellus, UniProt P30547)
# Assay: Tested for inhibition against [3H]-SP (substance P) (1 nM) binding to NK1 receptor in guinea pig lung membranes
# Format: cell membranes, Membrane
# Conditions: not given
# Chain of Substance-P receptor (P30547 whole entry): as above
row,pIC50,SMILES
1,7.68,CC(=O)NC(C(=O)NCCCC(NC(=O)c1c[nH]c2ccccc12)C(=O)N[C@H](Cc1ccccc1)C(=O)N(C)Cc1ccccc1)[C@@H](C)O (stereo partly drawn)
2,7.72,CC(=O)NC(C(=O)NCCCCC(NC(=O)c1cc2ccccc2[nH]1)C(=O)N[C@H](Cc1ccccc1)C(=O)N(C)Cc1ccccc1)[C@@H](C)O (stereo partly drawn)
3,7.89,CC(=O)N[C@H](C(=O)NCCCC[C@H](NC(=O)c1c[nH]c2ccccc12)C(=O)N[C@H](Cc1ccccc1)C(=O)N(C)Cc1ccccc1)[C@@H](C)O
4,7.27,C[C@@H](O)C(NC(=O)CC(NC(=O)c1cc2ccccc2[nH]1)C(=O)N[C@H](Cc1ccccc1)C(=O)N(C)Cc1ccccc1)C(N)=O (stereo partly drawn)
5,7.64,C[C@@H](O)C(NC(=O)CC(NC(=O)c1c[nH]c2ccccc12)C(=O)N[C@H](Cc1ccccc1)C(=O)N(C)Cc1ccccc1)C(N)=O (stereo partly drawn)

# — ChEMBL document CHEMBL1126756, “Studies on neurokinin antagonists. 3. Design and structure-activity relationships of new branched tripeptides N alpha-(substituted L-aspartyl, L-ornithyl, or L-lysyl)-N-methyl-N-(phenylmethyl)-L-phenylalaninamides as substance P antagonists” (J Med Chem, 1993)
